Patent publication US11584737B2, “Heterocyclic compound” (TAKEDA PHARMACEUTICAL COMPANY LIMITED, priority 2018, dated 2023)

Columns and labels:
[1] = system: A2780 cells; test: In vitro proliferation suppression test (CellTiter-Glo); type: cell-based, human; settings: A2780 cell proliferation inhibitory rate at 1 μM test compound, three days; for inhibition at 1 µM: Homo sapiens, 72 h
Protocol: Experimental Example 4: In Vitro Proliferation Suppression Test
The proliferation suppressive activity of compound in A2780 cells was evaluated by the following method.
A2780 cells were seeded in a 384-well white plate at a cell density of 1,000 cells/40 μL/well or a 96-well white plate at a cell density of 1,000 cells/90 μL/well using an assay medium (RPMI1640 medium containing 10% fetal bovine serum (FUJIFILM Wako Pure Chemical Corporation)) and incubated at 37° C. in 5% CO2.
The next day, a test compound dissolved in dimethyl sulfoxide (DMSO) was diluted with an assay medium, the obtained compound solution was added by 40 μL/well or 10 μL/well to each well of the plate containing A2780 cells and the mixture was incubated (test compound addition group). In addition, a similar reaction was performed without adding the test compound (test compound non-addition group).
Three days later, 80 μL or 100 μL of CellTiter-Glo reagent (Promega) was added, and the mixture was stirred for 10 min. Thereafter, the luminescence of each well was measured by ARVO-MX multilabel counter (Perkin Elmer Inc.).
The proliferation inhibitory rate (%) of each test compound against A2780 cells was calculated by the following calculation formula. Proliferation inhibitory rate (%)=(1−luminescence of test compound addition group÷luminescence of test compound non-addition group)×100
The A2780 cell proliferation inhibitory rate (%) of 1 μM test compound is shown below.

[2] = molecular target: T1, CDK12/CycK complex (Homo sapiens, UniProt Q9NYV4); test: Measurement of CDK12 inhibitory activity by binding assay (TR-FRET, 66 nM BODIPY-FL-labeled AT-7519); settings: inhibitory rate against CDK12 at 1 μM test compound, 66 nM BODIPY-FL-labeled AT-7519, 2 nM CDK12/CycK
Protocol: Experimental Example 1: CDK12 Binding Assay
(3) Measurement of CDK12 Inhibitory Activity by Binding Assay
(§1) His-tagged CDK12/CycK complex was added to a binding assay buffer supplemented with BODIPY-FL labeled AT-7519, terbium-labeled streptavidin and biotin-labeled anti-histidine antibody, and the mixture was stood for not less than 60 min at room temperature. This solution was added to an assay plate containing a test compound dispensed therein, and the mixture was left standing for 120 min at room temperature. The final concentration of CDK12/CycK complex, BODIPY-FL-labeled AT-7519, terbium-labeled streptavidin and biotin-labeled anti-histidine antibody was set to 2 nM, 66 nM, 0.2 nM, and 0.4 nM, respectively. The fluorescence intensity derived from terbium and BODIPY-FL was measured using Envision. The signal value of each well was determined using the TR-FRET ratio calculated by the following formula. TR-FRET ratio=(fluorescence value of BODIPY-FL)÷(fluorescence value of terbium)
(§2) The inhibitory rate (%) of the test compound against CDK12 was calculated by the following formula. Inhibitory rate (%)=(1−(TR-FRET ratio of test compound−blank)÷(control−blank))×100
The TR-FRET ratio of the CDK12 enzyme reaction mixture under compound non-addition conditions is indicated as control, and the TR-FRET ratio under 3 μM AT-7519 addition conditions is indicated as blank.
The inhibitory rate of the test compound against CDK12 at […] is shown below.

[3] = system: A2780 intracellular CTD pSer2; test: CTD pSer2 measurement using human ovarian cancer cell A2780 and In-Cell Western method; type: cell-based; settings: inhibitory rate against A2780 intracellular CTD pSer2 at 1 μM test compound, 4 hr
Protocol: Experimental Example 3: CTD pSer2 Measurement Using Human Ovarian Cancer Cell A2780 and In-Cell Western Method
A2780 cells (ATCC) were seeded in a 96 well plate at 1.8×10^4 cells/well, and the cells were cultured overnight in a cell culture medium RPMI1640 (FUJIFILM Wako Pure Chemical Corporation) containing 10% FBS (fetal bovine serum) and 1% penicillin/streptomycin. A test compound dissolved in a cell medium was added, and the mixture was stood for 4 hr in a CO2 incubator (37° C.). The cells were fixed with ALTFiX (Falma) for 30 min, and washed 3 times with a washing buffer (20 mM Tris-HCl (pH 7.5), 500 mM NaCl, 0.1% Tween20). 0.1% Triton-X-100 diluted with PBS(−) was added and the mixture was incubated at room temperature for 15 min. Thereafter, a blocking buffer (LI-COR) was added, and the mixture was incubated at room temperature for 1 hr. An anti-CTD pS2 antibody (Abcam) suspended in an antibody diluent (blocking buffer: PBS(−)-diluted 0.1% Tween20=1:1) was added, and the mixture was incubated at room temperature for 1 hr. The mixture was […] with a washing buffer, IRDye800CW-labeled anti-goat antibody (LI-COR) was added, and the mixture was incubated at room temperature for 1 hr. The mixture was washed 3 times with a washing buffer, and the fluorescence wavelength at 800 nm was measured by Aerius (LI-COR).
The inhibitory rate (%) of the test compound against A2780 intracellular CTD pSer2 was calculated by the following formula. Inhibitory rate (%)=(1−(count of test compound−blank)÷(control−blank))×100
The count of the A2780 cell under compound non-addition conditions is indicated as control, and the count under compound non-addition and primary antibody non-addition conditions is indicated as blank.
The results measured by the above-mentioned method (inhibitory rate of the signal value at 1 μM test compound relative to control) are shown below.

[4] = molecular target: CDK12/CycK enzyme (Homo sapiens, UniProt Q9NYV4); test: Measurement of CDK12/CycK inhibitory activity (ULight-4E-BP1 peptide phosphorylation, LANCE); type: biochemical; settings: inhibitory rate against CDK12/CycK at 1 μM test compound, ATP 10 μM or 500 μM
Protocol: Experimental Example 2: Measurement of CDK12/CycK Inhibitory Activity
A test compound dissolved in DMSO was added to a reaction solution (50 mM HEPES (pH 7.5), 10 mM MgCl2, 1 mM DTT, 0.01% Tween 20, 0.01% BSA) containing CDK12/CycK enzyme and ULight-labeled eIF4E-binding protein 1 (4E-BP1) (Thr37/Thr46) peptide (PerkinElmer), and the mixture was reacted at room temperature for 60 min. […] was added to give an ATP solution with a final concentration of 10 μM or 500 μM to start the enzyme reaction, and the mixture was reacted at room temperature for 60 min. A LANCE Detection buffer (PerkinElmer) containing europium-labeled anti-phosphorylation 4E-BP1 (Thr37/Thr46) antibody (PerkinElmer) and EDTA (final concentration 10 mM) was added to discontinue the reaction. After standing for 60 min, time decomposition fluorescence value (excitation 320 nm, emission 615 nm, 665 nm) was measured by Envision (PerkinElmer). The inhibitory rate (%) of the test compound against CDK12/CyclinK was calculated by the following formula. Inhibitory rate (%)=(1−(count of test compound−blank)÷(control−blank))×100
The count of the CDK12 enzyme reaction mixture under compound non-addition conditions is indicated as control, and the count under compound non-addition and CDK12/CycK enzyme non-addition conditions is indicated as blank.
The results measured by the above-mentioned method (inhibitory rate (%) of the signal value at 1 μM test compound relative to control is shown below.

[5] = molecular target: T1, CDK12/CycK complex; test: Measurement of CDK12 inhibitory activity by binding assay (BODIPY-FL labeled AT-7519 high concentration conditions, 1320 nM); settings: inhibitory rate against CDK12 at 1 μM test compound, 1320 nM BODIPY-FL-labeled AT-7519, 8 nM CDK12/CycK
Protocol: (4) Measurement of CDK12 Inhibitory Activity by Binding Assay (BODIPY-FL Labeled AT-7519 High Concentration Conditions)
as §1, with “complex was blended with a binding” for “complex was added to a binding”, “biotin-labeled anti-histidine antibody. This solution” for “biotin-labeled anti-histidine antibody, and the mixture was stood for not less than 60 min at room temperature. This solution”, “set to 8 nM, 1320” for “set to 2 nM, 66”, “8 nM, 1320 nM, 0.2” for “2 nM, 66 nM, 0.2”
as §2
The TR-FRET ratio of the CDK12 enzyme reaction mixture under compound non-addition conditions is indicated as control, and the TR-FRET ratio under 30 μM AT-7519 addition conditions is indicated as blank.
The inhibitory rate of the test compound against CDK12 at 1 μM is shown below.

Chain of CDK12/CycK enzyme (Q9NYV4 whole entry, species assumed): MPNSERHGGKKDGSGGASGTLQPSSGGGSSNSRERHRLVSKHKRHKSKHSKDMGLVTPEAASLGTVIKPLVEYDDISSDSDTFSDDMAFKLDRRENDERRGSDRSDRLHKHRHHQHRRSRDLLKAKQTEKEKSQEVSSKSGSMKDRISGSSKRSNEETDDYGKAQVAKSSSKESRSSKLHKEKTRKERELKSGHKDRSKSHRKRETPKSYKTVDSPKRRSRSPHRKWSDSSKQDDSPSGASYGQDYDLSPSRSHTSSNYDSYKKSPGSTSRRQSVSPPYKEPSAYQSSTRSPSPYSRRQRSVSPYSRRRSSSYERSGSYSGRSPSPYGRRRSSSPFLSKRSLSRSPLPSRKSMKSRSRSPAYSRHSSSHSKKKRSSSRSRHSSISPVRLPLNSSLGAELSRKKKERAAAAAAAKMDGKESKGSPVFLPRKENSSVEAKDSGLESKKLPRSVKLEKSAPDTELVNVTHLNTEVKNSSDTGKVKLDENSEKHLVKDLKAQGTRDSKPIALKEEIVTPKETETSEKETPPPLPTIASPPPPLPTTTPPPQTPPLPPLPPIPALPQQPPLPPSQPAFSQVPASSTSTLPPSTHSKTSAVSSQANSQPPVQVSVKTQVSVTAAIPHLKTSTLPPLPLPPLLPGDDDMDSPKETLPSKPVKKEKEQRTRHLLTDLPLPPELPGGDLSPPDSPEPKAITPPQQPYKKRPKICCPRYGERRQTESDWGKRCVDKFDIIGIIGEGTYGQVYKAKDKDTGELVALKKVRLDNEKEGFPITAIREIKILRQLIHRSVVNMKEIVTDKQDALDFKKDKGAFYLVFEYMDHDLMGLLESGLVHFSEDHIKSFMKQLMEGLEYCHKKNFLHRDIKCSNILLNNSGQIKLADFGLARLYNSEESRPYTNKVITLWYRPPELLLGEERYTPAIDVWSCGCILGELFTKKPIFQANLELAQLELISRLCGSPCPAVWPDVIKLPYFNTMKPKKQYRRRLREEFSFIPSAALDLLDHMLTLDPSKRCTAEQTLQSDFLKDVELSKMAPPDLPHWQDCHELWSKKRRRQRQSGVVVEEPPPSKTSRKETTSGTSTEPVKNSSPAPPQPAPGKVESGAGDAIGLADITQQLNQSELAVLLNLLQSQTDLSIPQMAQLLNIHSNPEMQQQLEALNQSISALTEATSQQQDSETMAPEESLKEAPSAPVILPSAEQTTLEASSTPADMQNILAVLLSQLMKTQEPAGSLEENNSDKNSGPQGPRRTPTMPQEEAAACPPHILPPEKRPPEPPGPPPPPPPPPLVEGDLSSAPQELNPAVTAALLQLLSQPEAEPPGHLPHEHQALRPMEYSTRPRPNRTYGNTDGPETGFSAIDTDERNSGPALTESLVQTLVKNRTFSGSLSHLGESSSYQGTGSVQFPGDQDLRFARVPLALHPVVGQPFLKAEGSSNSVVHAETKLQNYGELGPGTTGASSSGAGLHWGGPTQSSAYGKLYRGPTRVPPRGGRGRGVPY
Chain of CDK12/CycK enzyme (O75909 whole entry partner, species assumed): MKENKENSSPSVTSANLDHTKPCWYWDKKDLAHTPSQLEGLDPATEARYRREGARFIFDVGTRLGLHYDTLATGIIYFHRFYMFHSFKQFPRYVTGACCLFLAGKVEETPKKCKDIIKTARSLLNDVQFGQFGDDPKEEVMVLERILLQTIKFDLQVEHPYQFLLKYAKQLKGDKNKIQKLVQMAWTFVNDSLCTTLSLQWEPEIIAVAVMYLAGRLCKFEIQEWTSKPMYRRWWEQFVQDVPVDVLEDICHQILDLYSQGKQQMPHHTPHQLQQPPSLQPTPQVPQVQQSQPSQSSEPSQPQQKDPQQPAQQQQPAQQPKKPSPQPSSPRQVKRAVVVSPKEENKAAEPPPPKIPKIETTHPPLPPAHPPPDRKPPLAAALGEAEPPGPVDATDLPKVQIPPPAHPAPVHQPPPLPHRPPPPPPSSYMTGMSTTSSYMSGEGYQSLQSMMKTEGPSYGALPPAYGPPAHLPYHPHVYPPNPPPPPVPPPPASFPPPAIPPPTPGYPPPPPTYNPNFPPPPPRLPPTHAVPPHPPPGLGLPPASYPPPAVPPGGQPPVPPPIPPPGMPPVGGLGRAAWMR
T1 sequence (Q9NYV4 whole entry, species assumed): as the sequence (Q9NYV4 whole entry, species assumed) above
T1 sequence (O75909 whole entry partner, species assumed): as the sequence (O75909 whole entry partner, species assumed) above

inhibition at 1 µM [2] [%] | inhibition at 1 µM [4] [%] | inhibition at 1 µM [5] [%] | 1 μM inhibitory rate (%) [5] [%] | SMILES | inhibition at 1 µM [1] [%] | inhibition at 1 µM [3] [%] | 1 μM inhibitory rate (%) [1] [%]
94 | 98 | – | – | Cn1cc(-c2ccc(N(C(=O)NCc3ccccc3)[C@H]3CC[C@H](Nc4ncc(C#N)c(NC5COC5)n4)CC3)nc2)cn1 [Example 319, 3-benzyl-1-(trans-4-((5-cyano-4-(oxetan-3-ylamino)pyrimidin-2-yl)amino)cyclohexyl)-1-(5-(1-methyl-1H-pyrazol-4-yl)pyridin-2-yl)urea] | 97 | 69 | –
99 | 101 | – | – | Cn1cc(-c2ccc(N(C(=O)NCc3ccccc3)[C@H]3CC[C@H](Nc4ncc(C#N)c(-c5cncc(S(C)(=O)=O)c5)n4)CC3)nc2)cn1 [Example 440, 3-benzyl-1-(trans-4-((5-cyano-4-(5-(methylsulfonyl)pyridin-3-yl)pyrimidin-2-yl)amino)cyclohexyl)-1-(5-(1-methyl-1H-pyrazol-4-yl)pyridin-2-yl) urea] | 98 | 54 | –
94 | 103 | – | – | Cc1cc(-c2nc(N[C@H]3CC[C@H](N(C(=O)NCc4ccccc4)c4ccc(-c5cnn(C)c5)cn4)CC3)ncc2C#N)[nH]n1 [Example 469, 3-benzyl-1-(trans-4-((5-cyano-4-(3-methyl-1H-pyrazol-5-yl)pyrimidin-2-yl)amino)cyclohexyl)-1-(5-(1-methyl-1H-pyrazol-4-yl)pyridin-2-yl) urea] | 97 | 62 | –
102 | 103 | – | – | Cn1cc(-c2ccc(N(C(=O)NCc3ccccc3)[C@H]3CC[C@H](Nc4ncc(C#N)c(OC5COC5)n4)CC3)nc2)cn1 [Example 485, 3-benzyl-1-(trans-4-((5-cyano-4-(oxetan-3-yloxy)pyrimidin-2-yl)amino)cyclohexyl)-1-(5-(1-methyl-1H-pyrazol-4-yl)pyridin-2-yl)urea] | 97 | 63 | –
– | – | 103 | – | Cn1cc(-c2cnc(N(C(=O)OCC(C)(C)O)[C@H]3CC[C@H](Nc4ncc(C(F)(F)F)c(-c5cncc(S(C)(=O)=O)c5)n4)CC3)cn2)cn1 [Example 838, 2-hydroxy-2-methylpropyl (trans-4-((4-(5-(methanesulfonyl)pyridin-3-yl)-5-(trifluoromethyl)pyrimidin-2-yl)amino)cyclohexyl) (5-(1-methyl-1H-pyrazol-4-yl)pyrazin-2-yl)carbamate] | 98 | – | –
– | – | 79 | – | COc1ncc(-c2cnc(N(C(=O)OCC(C)(C)O)[C@H]3CC[C@H](Nc4ncc(C(F)(F)F)c(-c5n[nH]cc5Cl)n4)CC3)cn2)cn1 [Example 841, 2-hydroxy-2-methylpropyl (trans-4-((4-(4-chloro-1H-pyrazol-3-yl)-5-(trifluoromethyl)pyrimidin-2-yl)amino)cyclohexyl) (5-(2-methoxypyrimidin-5-yl)pyrazin-2-yl)carbamate] | 99 | – | –
– | – | – | 108 | COc1ncc(-c2ccc(N(C(=O)OCCN(C)C)[C@H]3CC[C@H](Nc4ncc(C(F)(F)F)c(-c5cncc(S(C)(=O)=O)c5)n4)CC3)nc2)cn1 [Example 848, 2-(dimethylamino)ethyl (trans-4-((4-(5-(methanesulfonyl)pyridin-3-yl)-5-(trifluoromethyl)pyrimidin-2-yl)amino)cyclohexyl) (5-(2-methoxypyrimidin-5-yl)pyridin-2-yl)carbamate] | – | – | 99
– | – | 110 | – | COc1ncc(-c2ccc(N(C(=O)NCC(C)(C)O)[C@H]3CC[C@H](Nc4ncc(C(F)(F)F)c(-c5ccn(C(F)F)n5)n4)CC3)nc2)cn1 [Example 849, 1-(trans-4-((4-(1-(difluoromethyl)-1H-pyrazol-3-yl)-5-(trifluoromethyl)pyrimidin-2-yl)amino)cyclohexyl)-3-(2-hydroxy-2-methylpropyl)-1-(5-(2-methoxypyrimidin-5-yl)pyridin-2-yl)urea] | 97 | – | –
– | – | 109 | – | CCCC(=O)N(c1ccc(-c2cnc(OC)nc2)cn1)[C@H]1CC[C@H](Nc2ncc(C(F)(F)F)c(-c3cncc(S(C)(=O)=O)c3)n2)CC1 [Example 858, N-(trans-4-((4-(5-(methanesulfonyl)pyridin-3-yl)-5-(trifluoromethyl)pyrimidin-2-yl)amino)cyclohexyl)-N-(5-(2-methoxypyrimidin-5-yl)pyridin-2-yl)butanamide] | 99 | – | –
